Experimental findings from patent publication US9321737B2, “CDK8-CDK19 selective inhibitors and their use in anti-metastatic and chemopreventative methods for cancer” (SENEX BIOTECHNOLOGY INC, priority 2012, dated 2016) are described below.

Assay [1] has as its system β-catenin-dependent TOPFLASH promoter in HCT116 colon carcinoma cells. In words: β-catenin-dependent TOPFLASH luciferase assay. The format is cell-based. The following applies: different concentrations. The protocol: The effect of different concentrations of Senexin B on luciferase expression from β-catenin-dependent TOPFLASH promoter in HCT116 colon carcinoma cells was measured as described in US Patent Publication 20120071477 for Senexin A (SNX2-1-53).

In the next assay the test system is >450 kinases. In words: KinomeScan ATP pocket binding inhibition, rest of panel. The following applies: 2,000 nM. An excerpt: (§1) (16) The results of this analysis are presented in FIGS. 6A-B in the form of an evolutionary dendrogram of the kinase family, where kinase inhibition is represented by red circles, the size of which represents the magnitude of the inhibition.

Another assay deals with CDK8 (Homo sapiens, UniProt P49336). In words: KinomeScan ATP pocket binding inhibition, CDK8. The conditions noted are these: 2,000 nM.
Chain of CDK8 (P49336 whole entry): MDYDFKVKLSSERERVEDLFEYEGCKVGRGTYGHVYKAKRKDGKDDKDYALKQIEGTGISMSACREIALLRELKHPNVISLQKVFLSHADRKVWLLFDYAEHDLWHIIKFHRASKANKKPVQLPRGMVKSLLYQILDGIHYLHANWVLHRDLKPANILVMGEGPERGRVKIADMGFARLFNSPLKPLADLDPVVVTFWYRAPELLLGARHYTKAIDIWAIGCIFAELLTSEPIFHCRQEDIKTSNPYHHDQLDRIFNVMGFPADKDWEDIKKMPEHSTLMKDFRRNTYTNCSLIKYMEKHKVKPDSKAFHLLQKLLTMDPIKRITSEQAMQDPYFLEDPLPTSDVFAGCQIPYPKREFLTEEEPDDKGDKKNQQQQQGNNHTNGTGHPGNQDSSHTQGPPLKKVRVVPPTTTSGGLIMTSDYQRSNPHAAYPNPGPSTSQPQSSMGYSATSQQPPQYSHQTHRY
From the text: as §1

For assay [2], the system named is MDA-MB-468 triple-negative breast cancer (TNBC) cells. In words: Pretreatment and treatment, MDA-MB-468 orthotopic engraftment. It is filed as in vivo, female nude mice. The protocol: Next we tested the effect of 5-day pretreatment with 25 mg/kg daily doses of Senexin B (i.p.) on the engraftment of MDA-MB-468 triple-negative breast cancer (TNBC) cells, injected orthotopically in the fat pad of 6-8 week old female nude mice (4 per group), following the last Senexin B treatment. The appearance of palpable tumors was scored every day. […] In the experiment shown in FIG. 9B, mice were treated (daily i.p. injections with 40 mg/kg Senexin B) both before MDA-MB-468 injection (for three days) and after the injection.

The subject of assay [3] is CDKI pathway (CMV promoter stimulation by p21) in HT1080 fibrosarcoma cells. In words: CDKI pathway inhibition cellular assay (CMV-GFP induction by IPTG-inducible p21). The format is cell-based, human. The following applies: for activity in cell-based CDKI pathway assay: CMV-GFP. The protocol:
The compounds described below are shown in Table 1 and the structures of some novel compounds according to the invention are shown in FIG. 1. […] All the compounds were tested for the ability to inhibit the CDKI pathway in a cellular assay described in our previous patent application PCT/US06/01046. This assay is based on the induction of green fluorescent protein (GFP) expression from the cytomegalovirus (CMV) promoter in human HT1080 fibrosarcoma cells that express CDKI p21 from an isopropyl-β-thio-galactoside (IPTG)-inducible promoter. The compound activity as a CDKI pathway inhibitor is measured by its ability to prevent the stimulation of the CMV promoter upon the addition of p21-inducing IPTG. CMV promoter activity is measured by the ratio of GFP fluorescence to the relative cell number, as determined by staining cellular DNA with Hoechst 33342.

The next assay deals with T1, YSK4 (Homo sapiens, UniProt Q56UN5).
T1 construct: purchased KinomeScan, a division of Ambit Biosciences
T1 sequence (Q56UN5 1-1328): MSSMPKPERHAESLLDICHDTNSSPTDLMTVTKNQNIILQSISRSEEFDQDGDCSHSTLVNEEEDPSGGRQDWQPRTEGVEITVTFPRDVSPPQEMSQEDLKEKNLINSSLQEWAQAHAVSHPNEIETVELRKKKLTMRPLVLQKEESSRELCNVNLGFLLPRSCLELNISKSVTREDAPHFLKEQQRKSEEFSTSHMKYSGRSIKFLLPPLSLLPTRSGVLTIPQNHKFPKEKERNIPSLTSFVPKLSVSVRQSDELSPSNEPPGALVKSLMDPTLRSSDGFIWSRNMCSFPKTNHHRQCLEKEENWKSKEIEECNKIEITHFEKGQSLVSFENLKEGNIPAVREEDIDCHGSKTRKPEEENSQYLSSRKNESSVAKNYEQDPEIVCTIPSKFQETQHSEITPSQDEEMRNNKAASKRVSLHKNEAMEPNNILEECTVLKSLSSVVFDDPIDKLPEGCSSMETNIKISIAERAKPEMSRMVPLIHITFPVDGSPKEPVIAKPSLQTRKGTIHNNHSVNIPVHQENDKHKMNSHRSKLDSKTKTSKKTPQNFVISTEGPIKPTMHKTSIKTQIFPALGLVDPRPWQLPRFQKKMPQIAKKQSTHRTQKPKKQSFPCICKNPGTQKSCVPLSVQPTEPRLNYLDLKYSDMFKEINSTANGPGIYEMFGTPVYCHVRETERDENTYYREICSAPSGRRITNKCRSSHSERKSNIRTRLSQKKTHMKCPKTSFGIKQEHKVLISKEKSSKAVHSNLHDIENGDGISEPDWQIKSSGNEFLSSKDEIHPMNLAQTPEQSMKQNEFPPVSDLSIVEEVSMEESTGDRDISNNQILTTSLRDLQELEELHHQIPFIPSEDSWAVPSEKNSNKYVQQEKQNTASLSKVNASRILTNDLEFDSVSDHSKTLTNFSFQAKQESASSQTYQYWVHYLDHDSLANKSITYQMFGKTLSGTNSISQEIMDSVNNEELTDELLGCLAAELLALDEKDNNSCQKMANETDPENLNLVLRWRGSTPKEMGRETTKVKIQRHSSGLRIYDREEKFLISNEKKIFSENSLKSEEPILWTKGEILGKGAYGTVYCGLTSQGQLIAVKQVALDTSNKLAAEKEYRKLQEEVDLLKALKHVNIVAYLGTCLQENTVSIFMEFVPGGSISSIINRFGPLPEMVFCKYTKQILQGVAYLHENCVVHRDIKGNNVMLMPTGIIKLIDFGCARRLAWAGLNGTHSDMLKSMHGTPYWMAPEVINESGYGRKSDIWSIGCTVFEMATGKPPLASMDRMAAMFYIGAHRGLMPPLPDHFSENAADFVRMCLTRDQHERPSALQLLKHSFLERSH
In words: KinomeScan ATP pocket binding inhibition, YSK4. The conditions noted are these: 2,000 nM.
From the text: as §1

Another assay has as its system MDA-MB-157. The assay can be described thus: Breast carcinoma cell growth, MTT, MDA-MB-157. The conditions noted are these: five days. It is filed as cell-based.
The subject of assay [4] is MDA-MB-468 TNBC tumor invasion. The assay can be described thus: Histological analysis of MDA-MB-468 tumor invasion (H&E). It is filed as in vivo, female nude mice. The following applies: tumors from FIG. 15B experiment. An excerpt:
At the end of the experiment shown in FIG. 15B, mice were sacrificed, tumors were removed, formalin fixed, sectioned and processed for histological analysis after H&E staining.

Turning to `CN1CCN(C(=O)c2ccc3cc(CCNc4ncnc5ccc(C#N)cc45)ccc3c2)CC1` [SNX2-1-165], in assay [1], the “luciferase expression from TOPFLASH promoter (β-catenin activity)” value is “concentration-dependent inhibition”. The “% inhibition of all other kinases in the panel” value in the assay on >450 kinases is recorded as at most 50%. Besides, the “% inhibition of CDK8” value on CDK8 amounted to 97.8%. Also, in assay [2] (5-day pretreatment 25 mg/kg daily i.p.), the “appearance of palpable tumors” value is “significantly slower appearance of palpable tumors”. Besides, in assay [2] (daily i.p. 40 mg/kg, three days before and after injection), the “tumor growth (tumor volumes, caliper)” value was “strong and sustained inhibition of tumor growth”. The “activity in cell-based CDKI pathway assay” value is given as “more active than any of the previously developed SNX2-class compounds” in assay [3] (IPTG-inducible p21) and “potently inhibited” in assay [3] (IPTG-inducible p21, listed as Senexin B). For the same compound, the EC50 (as a rule, the concentration that produces a half-maximal response) in assay [3] (IPTG-induced p21, CMV-GFP / Hoechst 33342, read-out: Cell-based Assay EC50) came out at 0.53 µM. Further, the “% inhibition of YSK4” value at YSK4 is reported as 59%. The “growth inhibition, MDA-MB-157” value in the assay on MDA-MB-157 is reported as “dose-dependent growth inhibition”. Moreover, the “invasive or non-invasive tumor growth” value in assay [4] is recorded as “non-invasive”.
